Data taken from patent US20140378454A1, “NOVEL METHODS” (XSPRAY MICROPARTICLES AB, priority 2012, published 2014).
Where a name gives a salt, the structure may show the parent alone.

What was measured:
[1] = Dissolution measurement assay (apparent solubility) in FaSSIF, pH 6.5; format: physicochemical; design: AUC/90 min / AUC/80 min: concentration or dose not given beside the values; conditions: for AUC/80 min: during 80 min dissolution
[2] = Dissolution rate measurement in sink conditions, flow through cell system, FaSSIF, 37° C.; format: physicochemical; conditions: sink condition in FaSSIF; for Initial Dissolution Rate: initial slope of accumulated % solubilized vs time, 0 to 10 minutes
Experimental: The temperature of the apparatus was set to 37° C. The amount of powder added into the cell depends on drug load of the powder: The exact amount of powder was calculated from results obtained from drug load analysis of the powders.
Typically, 3.5 to 7 mg PKI was added into the flow through cell and a flow rate between 8 and 16 ml medium/min (preferably about 8 ml medium/min) was pumped through the powder. One ml samples of the medium passing through the cell were collected at predetermined times. […] Samples were taken after 0, 0.5, 1, 1.5, 2, 3, 4, 5, 6, 7, 8, 9, 10, 15, 20, 25, 30, 35 and 40 min from the moment the medium comes out from the flow through cell. The accumulated % solubilized of the amount of active substance added into the flow through cell was calculated and plotted against time (min). The initial slope (“initial dissolution rate”) of the graph was estimated, as measured during 0 to 10 minutes, and taken as the dissolution rate of the material in sink condition at 37° C. in the given dissolution medium.

[3] = concentration of nilotinib HCl, FaSSIF solution (pH 6.5), 5 minutes dissolution, HCl
[4] = concentration of nilotinib HCl, FaSSIF solution (pH 6.5), 30 minutes dissolution, HCl
[5] = concentration of nilotinib HCl, FaSSIF solution (pH 6.5), 90 minutes dissolution, HCl
[6] = nilotinib HCl, FaSSIF solution (pH 6.5), 30 minutes dissolution, HCl
[7] = nilotinib HCl, FaSSIF solution (pH 6.5), Area Under the Curve during 90 minutes dissolution, HCl

SMILES: C#Cc1cccc(Nc2ncnc3cc(OCCOC)c(OCCOC)cc23)c1 [Exp 58, erlotinib HCl]
- Conc (mg/L) 5 min ([1]; 5 min, pH 6.5): 28.9 mg/L
- Conc (mg/L) 30 min ([1]; 30 min, pH 6.5): 6.25 mg/L
- Conc (mg/L) 90 min ([1]; 90 min, pH 6.5): 4.6 mg/L
- % solubilized 30 min. ([1]; erlotinib HCl, FaSSIF pH 6.5, 30 min dissolution): 0.6%
- AUC/90 min Mg/min/L ([1]; erlotinib HCl, FaSSIF pH 6.5, during 90 min dissolution): 837 Mg/min/L

SMILES: COc1cc2ncnc(Nc3ccc(F)c(Cl)c3)c2cc1OCCCN1CCOCC1 [Exp 540, gefitinib]
- Initial Dissolution Rate [2]: 2.2

SMILES: Cc1cn(-c2cc(NC(=O)c3ccc(C)c(Nc4nccc(-c5cccnc5)n4)c3)cc(C(F)(F)F)c2)cn1 [Exp 2, Nilotinib HCl]
- Conc (mg/L) 5 min [1, 3]: 0.2 mg/L
- Conc (mg/L) 30 min [1, 4]: 0.2 mg/L
- Conc (mg/L) 90 min [1, 5]: 0.2 mg/L
- % solubilized 30 min. [1, 6]: 0.04%
- AUC/90 min Mg/min/L [1, 7]: 23.5 Mg/min/L

SMILES: CNC(=O)c1cc(Oc2ccc(NC(=O)Nc3ccc(Cl)c(C(F)(F)F)c3)cc2)ccn1 [Exp 560, sorafenib tosylate]
- Initial Dissolution Rate [2]: 0.47

SMILES: CCCS(=O)(=O)Nc1ccc(F)c(C(=O)c2c[nH]c3ncc(-c4ccc(Cl)cc4)cc23)c1F [Exp 164, vemurafenib]
- Conc (mg/L) 3 min ([1]; 3 min, pH 6.5): 0.3 mg/L
- % solubilized 40 min. ([1]; 40 min, pH 6.5): 0.1%
- Conc (mg/L) 40 min ([1]; 40 min, pH 6.5): 0.3 mg/L
- Conc (mg/L) 80 min ([1]; 80 min, pH 6.5): 0.4 mg/L

SMILES: COc1cc2ncnc(Nc3ccc(F)c(Cl)c3)c2cc1OCCCN1CCOCC1 [Exp 131, gefitinib]
- Conc (mg/L) 3 min ([1]; concentration of gefitinib after 3 min dissolution, FaSSIF pH 6.5): 121.8 mg/L
- Conc (mg/L) 40 min ([1]; concentration of gefitinib after 40 min dissolution, FaSSIF pH 6.5): 153.1 mg/L
- Conc (mg/L) 80 min ([1]; concentration of gefitinib after 80 min dissolution, FaSSIF pH 6.5): 148.1 mg/L
- % solubilized 40 min. ([1]; gefitinib, 40 min dissolution, FaSSIF pH 6.5): 15.3%
- AUC/80 min ([1]; gefitinib, FaSSIF pH 6.5): 5967 Mg/min/L

SMILES: Cc1ccc(Nc2nccc(N(C)c3ccc4c(C)n(C)nc4c3)n2)cc1S(N)(=O)=O [Exp 84, pazopanib]
- Conc (mg/L) 5 min ([1]; 5 min, pH 6.5): 46.2 mg/L
- % solubilized 30 min. ([1]; 30 min, pH 6.5): 2.4%
- Conc (mg/L) 30 min ([1]; 30 min, pH 6.5): 24.4 mg/L
- Conc (mg/L) 90 min ([1]; 90 min, pH 6.5): 15.0 mg/L

SMILES: Cc1nc(Nc2ncc(C(=O)Nc3c(C)cccc3Cl)s2)cc(N2CCN(CCO)CC2)n1 [Exp 138, dasatinib]
- Conc (mg/L) 3 min ([1]; 3 min, pH 6.5): 34.5 mg/L
- Conc (mg/L) 40 min ([1]; 40 min, pH 6.5): 59.7 mg/L
- Conc (mg/L) 80 min ([1]; 80 min, pH 6.5): 63.5 mg/L
- % solubilized 40 min. ([1]; dasatinib, 40 min dissolution, FaSSIF pH 6.5): 6.0%
- AUC/80 min ([1]; dasatinib, FaSSIF pH 6.5): 2396 Mg/min/L

SMILES: CNC(=O)c1cc(Oc2ccc(NC(=O)Nc3ccc(Cl)c(C(F)(F)F)c3)cc2)ccn1.Cc1ccc(S(=O)(=O)O)cc1 [Experiment 560]
- Accumulated % of solubilized of remaining active substance at a given time (min) ([2]; 0 min): 0.2%
- Accumulated % of solubilized of remaining active substance at a given time (min) ([2]; 0.5 min): 0.4%
- Accumulated % of solubilized of remaining active substance at a given time (min) ([2]; 1 min): 0.7%
- Accumulated % of solubilized of remaining active substance at a given time (min) ([2]; 1.5 min): 1.0%
- Accumulated % of solubilized of remaining active substance at a given time (min) ([2]; 2 min): 1.3%
- Accumulated % of solubilized of remaining active substance at a given time (min) ([2]; 3 min): 1.8%
- Accumulated % of solubilized of remaining active substance at a given time (min) ([2]; 4 min): 2.2%
- Accumulated % of solubilized of remaining active substance at a given time (min) ([2]; 5 min): 2.6%
- Accumulated % of solubilized of remaining active substance at a given time (min) ([2]; 6 min): 3.0%
- Accumulated % of solubilized of remaining active substance at a given time (min) ([2]; 7 min): 3.4%
- Accumulated % of solubilized of remaining active substance at a given time (min) ([2]; 8 min): 3.8%
- Accumulated % of solubilized of remaining active substance at a given time (min) ([2]; 9 min): 4.2%
- Accumulated % of solubilized of remaining active substance at a given time (min) ([2]; 10 min): 4.6%
- Accumulated % of solubilized of remaining active substance at a given time (min) ([2]; 20 min): 8.8%
- Accumulated % of solubilized of remaining active substance at a given time (min) ([2]; 30 min): 12.6%
- Accumulated % of solubilized of remaining active substance at a given time (min) ([2]; 40 min): 16.4%

SMILES: C[C@@H](Oc1cc(-c2cnn(C3CCNCC3)c2)cnc1N)c1c(Cl)ccc(F)c1Cl [Exp 150, crizotinib]
- Conc (mg/L) 3 min ([1]; 3 min, pH 6.5): 89.3 mg/L
- % solubilized 40 min. ([1]; 40 min, pH 6.5): 22.7%
- Conc (mg/L) 40 min ([1]; 40 min, pH 6.5): 226.5 mg/L
- Conc (mg/L) 80 min ([1]; 80 min, pH 6.5): 295.6 mg/L

SMILES: CS(=O)(=O)CCNCc1ccc(-c2ccc3ncnc(Nc4ccc(OCc5cccc(F)c5)c(Cl)c4)c3c2)o1 [Exp 110, lapatinib base]
- Conc (mg/L) 5 min ([1]; concentration of lapatinib after 5 min dissolution, FaSSIF pH 6.5): 2.9 mg/L
- Conc (mg/L) 30 min ([1]; concentration of lapatinib after 30 min dissolution, FaSSIF pH 6.5): 6.0 mg/L
- Conc (mg/L) 90 min ([1]; concentration of lapatinib after 90 min dissolution, FaSSIF pH 6.5): 6.5 mg/L
- % solubilized 30 min. ([1]; lapatinib, 30 min dissolution, FaSSIF pH 6.5): 0.3%
- AUC/90 min ([1]; lapatinib, during 90 min dissolution, FaSSIF pH 6.5): 494 Mg/min/L

SMILES: C[C@@H](Oc1cc(-c2cnn(C3CCNCC3)c2)cnc1N)c1c(Cl)ccc(F)c1Cl [Exp 570, crizotinib]
- Initial Dissolution Rate [2]: 6.6

SMILES: CNC(=O)c1ccccc1Sc1ccc2c(/C=C/c3ccccn3)n[nH]c2c1 [Exp 157, axitinib]
- Conc (mg/L) 3 min ([1]; 3 min, pH 6.5): 0.6 mg/L
- Conc (mg/L) 40 min ([1]; 40 min, pH 6.5): 0.6 mg/L
- Conc (mg/L) 80 min ([1]; 80 min, pH 6.5): 0.6 mg/L
- % solubilized 40 min. ([1]; axitinib, 40 min dissolution, FaSSIF pH 6.5): 0.1%
- AUC/80 min ([1]; axitinib, FaSSIF pH 6.5): 47 Mg/min/L

SMILES: Cc1cn(-c2cc(NC(=O)c3ccc(C)c(Nc4nccc(-c5cccnc5)n4)c3)cc(C(F)(F)F)c2)cn1 [Exp 500, nilotinib HCl]
- Initial Dissolution Rate [2]: 0.27

SMILES: C#Cc1cccc(Nc2ncnc3cc(OCCOC)c(OCCOC)cc23)c1 [Exp 510, erlotinib HCl]
- Initial Dissolution Rate [2]: 0.303

SMILES: Cc1cn(-c2cc(NC(=O)c3ccc(C)c(Nc4nccc(-c5cccnc5)n4)c3)cc(C(F)(F)F)c2)cn1 [Exp 3, Nilotinib HCl]
- Conc (mg/L) 5 min [1, 3]: 0.2 mg/L
- Conc (mg/L) 30 min [1, 4]: 0.3 mg/L
- Conc (mg/L) 90 min [1, 5]: 0.2 mg/L
- % solubilized 30 min. [1, 6]: 0.03%
- AUC/90 min Mg/min/L [1, 7]: 21.8 Mg/min/L

SMILES: Cc1cn(-c2cc(NC(=O)c3ccc(C)c(Nc4nccc(-c5cccnc5)n4)c3)cc(C(F)(F)F)c2)cn1 [Exp 1, Nilotinib HCl]
- Conc (mg/L) 5 min [1, 3]: 0.1 mg/L
- Conc (mg/L) 30 min [1, 4]: 0.2 mg/L
- Conc (mg/L) 90 min [1, 5]: 0.1 mg/L
- % solubilized 30 min. [1, 6]: 0.20%
- AUC/90 min Mg/min/L [1, 7]: 13.0 Mg/min/L

SMILES: CNC(=O)c1cc(Oc2ccc(NC(=O)Nc3ccc(Cl)c(C(F)(F)F)c3)cc2)ccn1 [Exp 142, sorafenib tosylate]
- Conc (mg/L) 3 min ([1]; 3 min, pH 6.5): 59.1 mg/L
- % solubilized 40 min. ([1]; 40 min, pH 6.5): 34.4%
- Conc (mg/L) 40 min ([1]; 40 min, pH 6.5): 343.5 mg/L
- Conc (mg/L) 80 min ([1]; 80 min, pH 6.5): 311.5 mg/L

SMILES: Cc1cn(-c2cc(NC(=O)c3ccc(C)c(Nc4nccc(-c5cccnc5)n4)c3)cc(C(F)(F)F)c2)cn1 [Exp 4, Nilotinib Base]
- Conc (mg/L) 5 min ([1]; concentration of nilotinib HCl, FaSSIF solution (pH 6.5), 5 minutes dissolution): 0.6 mg/L
- Conc (mg/L) 30 min ([1]; concentration of nilotinib HCl, FaSSIF solution (pH 6.5), 30 minutes dissolution): 0.5 mg/L
- Conc (mg/L) 90 min ([1]; concentration of nilotinib HCl, FaSSIF solution (pH 6.5), 90 minutes dissolution): 0.2 mg/L
- % solubilized 30 min. ([1]; nilotinib HCl, FaSSIF solution (pH 6.5), 30 minutes dissolution): 0.50%
- AUC/90 min Mg/min/L ([1]; nilotinib HCl, FaSSIF solution (pH 6.5), Area Under the Curve during 90 minutes dissolution): 36.5 Mg/min/L

SMILES: CS(=O)(=O)CCNCc1ccc(-c2ccc3ncnc(Nc4ccc(OCc5cccc(F)c5)c(Cl)c4)c3c2)o1 [Exp 530, lapatinib ditosylate]
- Initial Dissolution Rate [2]: 0.103
